Measured values published in ChEMBL document CHEMBL1681651, “A broad spectrum anticancer nucleoside with selective toxicity against human colon cells in vitro” (2011).

Experiments:
Assay type in all cases: functional
MDA-MB-468 = test: Growth inhibition of human MDA-MB-468 cells assessed as cell growth at 10 uM after 48 hrs by SRB assay; details: MDA-MB-468, 48 h, read-out: Activity
[1] = Growth inhibition of human Hs 578T cells assessed as cell growth at 1 uM after 48 hrs by SRB assay; details: read-out: Activity
SR [2] = test: Growth inhibition of human SR cells after 48 hrs by SRB assay
HL-60(TB) [3] = test: Growth inhibition of human HL-60(TB) cells after 48 hrs by […] growth inhibition assay; details: HL-60, 48 h
K562 [4] = test: Growth inhibition of human K562 cells after 48 hrs by […] growth inhibition assay; details: K562, 48 h
MOLT-4 [5] = test: Growth inhibition of human MOLT4 cells after 48 hrs by […] growth inhibition assay; details: MOLT-4, 48 h
HCT-116 = test: Growth inhibition of human HCT116 cells after 48 hrs by […] growth inhibition assay; details: HCT-116, 48 h
TK-10 = test: Growth inhibition of human TK10 cells after 48 hrs by […] growth inhibition assay; details: TK-10, 48 h
K562 [6] = test: Growth inhibition of human K562 cells assessed as cell growth at 0.1 uM after 48 hrs by SRB assay; details: K562, 48 h, read-out: Activity
MOLT-4 [7] = test: Growth inhibition of human MOLT4 cells assessed as cell growth at 0.1 uM after 48 hrs by SRB assay; details: MOLT-4, 48 h, read-out: Activity
SR [8] = test: Growth inhibition of human SR cells assessed as cell growth at 0.1 uM after 48 hrs by SRB assay; details: read-out: Activity
SW-620 [9] = test: Growth inhibition of human SW620 cells assessed as cell growth at 0.1 uM after 48 hrs by SRB assay; details: SW-620, 48 h, read-out: Activity
SF-268 = test: Growth inhibition of human SF268 cells assessed as cell growth at 0.1 uM after 48 hrs by SRB assay; details: SF-268, 48 h, read-out: Activity
SK-MEL-28 [10] = test: Growth inhibition of human SK-MEL-28 cells assessed as cell growth at 0.1 uM after 48 hrs by SRB assay; details: SK-MEL-28, 48 h, read-out: Activity
PC-3 [11] = test: Growth inhibition of human PC3 cells assessed as cell growth at 0.1 uM after 48 hrs by SRB assay; details: PC-3, 48 h, read-out: Activity
[12] = Growth inhibition of human Hs 578T cells assessed as cell growth at 0.1 uM after 48 hrs by SRB assay; details: read-out: Activity
K562 [13] = test: Growth inhibition of human K562 cells assessed as cell growth at 100 uM after 48 hrs by SRB assay; details: K562, 48 h, read-out: Activity
MOLT-4 [14] = test: Growth inhibition of human MOLT4 cells assessed as cell growth at 100 uM after 48 hrs by SRB assay; details: MOLT-4, 48 h, read-out: Activity
SR [15] = test: Growth inhibition of human SR cells assessed as cell growth at 100 uM after 48 hrs by SRB assay; details: read-out: Activity
NCI-H226 = test: Growth inhibition of human NCI-H226 cells assessed as cell growth at 100 uM after 48 hrs by SRB assay; details: NCI-H226, 48 h, read-out: Activity
HT-29 = test: Growth inhibition of human HT-29 cells assessed as cell growth at 100 uM after 48 hrs by SRB assay; details: HT-29, 48 h, read-out: Activity
SW-620 [16] = test: Growth inhibition of human SW620 cells assessed as cell growth at 100 uM after 48 hrs by SRB assay; details: SW-620, 48 h, read-out: Activity
SK-MEL-28 [17] = test: Growth inhibition of human SK-MEL-28 cells assessed as cell growth at 100 uM after 48 hrs by SRB assay; details: SK-MEL-28, 48 h, read-out: Activity
PC-3 [18] = test: Growth inhibition of human PC3 cells assessed as cell growth at 100 uM after 48 hrs by SRB assay; details: PC-3, 48 h, read-out: Activity
[19] = Growth inhibition of human Hs 578T cells assessed as cell growth at 100 uM after 48 hrs by SRB assay; details: read-out: Activity
T47D = test: Growth inhibition of human T47D cells assessed as cell growth at 100 uM after 48 hrs by SRB assay; details: read-out: Activity
HL-60(TB) [20] = test: Growth inhibition of human HL-60(TB) cells assessed as cell growth at 1 mM after 48 hrs by SRB assay; details: HL-60, 48 h, read-out: Activity
K562 [21] = test: Growth inhibition of human K562 cells assessed as cell growth at 1 mM after 48 hrs by SRB assay; details: K562, 48 h, read-out: Activity
MOLT-4 [22] = test: Growth inhibition of human MOLT4 cells assessed as cell growth at 1 mM after 48 hrs by SRB assay; details: MOLT-4, 48 h, read-out: Activity
SR [23] = test: Growth inhibition of human SR cells assessed as cell growth at 1 mM after 48 hrs by SRB assay; details: read-out: Activity
SW-620 [24] = test: Growth inhibition of human SW620 cells assessed as cell growth at 1 mM after 48 hrs by SRB assay; details: SW-620, 48 h, read-out: Activity
SK-MEL-28 [25] = test: Growth inhibition of human SK-MEL-28 cells assessed as cell growth at 1 mM after 48 hrs by SRB assay; details: SK-MEL-28, 48 h, read-out: Activity
PC-3 [26] = test: Growth inhibition of human PC3 cells assessed as cell growth at 1 mM after 48 hrs by SRB assay; details: PC-3, 48 h, read-out: Activity
MCF7 = test: Growth inhibition of human MCF7 cells assessed as cell growth at 1 mM after 48 hrs by SRB assay; details: Homo sapiens, MCF7, 48 h; read-out: Activity
[27] = Growth inhibition of human Hs 578T cells assessed as cell growth at 1 mM after 48 hrs by SRB assay; details: read-out: Activity
SR [28] = test: Growth inhibition of human SR cells assessed as cell growth at 1 uM after 48 hrs by SRB assay; details: read-out: Activity
SK-MEL-28 [29] = test: Growth inhibition of human SK-MEL-28 cells assessed as cell growth at 1 uM after 48 hrs by SRB assay; details: SK-MEL-28, 48 h, read-out: Activity
[30] = read-out: LC50 (the source's name)
[31] = read-out: pLC50 (the source's name) (converted)

SMILES: CNC(=O)OC[C@H]1O[C@@H](n2cnc3c(NC(=O)Nc4ccccc4)ncnc32)[C@H](O[Si](C)(C)C(C)(C)C)[C@@H]1O[Si](C)(C)C(C)(C)C
- growth at 10 µM (MDA-MB-468): 104%

SMILES: CCOC(=O)C[C@H]1[C@@H](O[Si](C)(C)C(C)(C)C)[C@H](n2cnc3c(NC(=O)Nc4ccccc4)ncnc32)O[C@@H]1CNC(=O)NC
- growth at 1 µM [1]: 95%
- GI50 (SR [2]; read-out: GI50): 2.23 µM
- CC50 (SR [2]; [30]): > 100 µM
- TGI (SR [2]; read-out: TGI): 7.07 µM
- GI50 (SR [2]; read-out: pGI50 (converted)): 2.24 µM
- CC50 (SR [2]; [31]): > 100 µM
- TGI (SR [2]; read-out: pTGI (converted)): 7.08 µM
- GI50 (HL-60(TB) [3]; read-out: GI50): 3.01 µM
- CC50 (HL-60(TB) [3]; [30]): > 100 µM
- GI50 (HL-60(TB) [3]; read-out: pGI50 (converted)): 3.02 µM
- CC50 (HL-60(TB) [3]; [31]): > 100 µM
- GI50 (K562 [4]; read-out: GI50): 3.59 µM
- LC50 (concentration killing 50% of cells) (K562 [4]; read-out: LC50): > 100 µM
- TGI (K562 [4]; read-out: TGI): 32.9 µM
- GI50 (K562 [4]; read-out: pGI50 (converted)): 3.63 µM
- LC50 (concentration killing 50% of cells) (K562 [4]; read-out: pLC50 (converted)): > 100 µM
- TGI (K562 [4]; read-out: pTGI (converted)): 33.1 µM
- GI50 (MOLT-4 [5]; read-out: GI50): 2.39 µM
- LC50 (MOLT-4 [5]; read-out: LC50): > 100 µM
- TGI (MOLT-4 [5]; read-out: TGI): 23.3 µM
- GI50 (MOLT-4 [5]; read-out: pGI50 (converted)): 2.4 µM
- LC50 (MOLT-4 [5]; read-out: pLC50 (converted)): > 100 µM
- TGI (MOLT-4 [5]; read-out: pTGI (converted)): 23.4 µM
- GI50 (HCT-116; read-out: GI50): 3.2 µM
- CC50 (HCT-116; [30]): 45.6 µM
- TGI (HCT-116; read-out: TGI): 16.1 µM
- GI50 (HCT-116; read-out: pGI50 (converted)): 3.24 µM
- CC50 (HCT-116; [31]): 45.7 µM
- TGI (HCT-116; read-out: pTGI (converted)): 16.2 µM
- GI50 (TK-10; read-out: GI50): 12.4 µM
- CC50 (TK-10; [30]): > 100 µM
- TGI (TK-10; read-out: TGI): 40.5 µM
- GI50 (TK-10; read-out: pGI50 (converted)): 12.3 µM
- CC50 (TK-10; [31]): > 100 µM
- TGI (TK-10; read-out: pTGI (converted)): 40.7 µM
- growth at 0.1 µM (K562 [6]): 96%
- growth at 0.1 µM (MOLT-4 [7]): 93%
- growth at 0.1 µM (SR [8]): 82%
- growth at 0.1 µM (SW-620 [9]): 97%
- growth at 0.1 µM (SF-268): 102%
- growth at 0.1 µM (SK-MEL-28 [10]): 104%
- growth at 0.1 µM (PC-3 [11]): 121%
- growth at 0.1 µM [12]: 94%
- growth at 100 µM (K562 [13]): 19%
- growth at 100 µM (MOLT-4 [14]): 8%
- growth at 100 µM (SR [15]): -15%
- growth at 100 µM (NCI-H226): 71%
- growth at 100 µM (HT-29): 17%
- growth at 100 µM (SW-620 [16]): 28%
- growth at 100 µM (SK-MEL-28 [17]): 40%
- growth at 100 µM (PC-3 [18]): -47%
- growth at 100 µM [19]: 18%
- growth at 100 µM (T47D): 16%
- growth at 1000 µM (HL-60(TB) [20]): 22%
- growth at 1000 µM (K562 [21]): -17%
- growth at 1000 µM (MOLT-4 [22]): -14%
- growth at 1000 µM (SR [23]): -34%
- growth at 1000 µM (SW-620 [24]): -33%
- growth at 1000 µM (SK-MEL-28 [25]): -91%
- growth at 1000 µM (PC-3 [26]): -77%
- growth at 1000 µM (MCF7): -8%
- growth at 1000 µM [27]: -7%
- growth at 1 µM (SR [28]): 70%
- growth at 1 µM (SK-MEL-28 [29]): 106%
